Several values for one entry are separate records, joined by “and”; a condition that tells them apart may be missing. Equal values may be shown once. Read-outs that look alike come from different tables or passages of the source.
Tests used:
Jurkat cells = conditions: centrifugation 20 min, 500×g; within 5.5 h incubation with molecule
Procedure: Respective columns from left: 1: 10 min incubation with molecule. 2: 1 h incubation with molecule. 3: 3,5 h incubation with molecule. 4: 5.5 h min incubation with molecule. Following molecules were tested: 1255: 3′-(Myristic acid)2-PEG2000-dT-Biotin-TEG-5′ INVERS. 1234: 5′-(Cholesteryl-TEG)2-Spacer C18-dT-Biotin-TEG-3′; 1248: 3′-(Cholesteryl-TEG)2-PEG2000-Fluos-Biotin-TEG-5′ INVERS; 1254: 3′-(Cholesteryl-TEG)2-SpacerC18-Fluos-Biotin-TEG-5′ INVERS. […] Centrifugation characteristics: 20 min, 500×g.
(§1) Following molecules were tested: • 1255: 3′-(Myristic acid)2-PEG2000-dT-Biotin-TEG-5′ INVERS • 1234: 5′-(Cholesteryl-TEG)2-Spacer C18-dT-Biotin-TEG-3′ • 1248: 3′-(Cholesteryl-TEG)2-PEG2000-Fluos-Biotin-TEG-5′ INVERS • 1254: 3′-(Cholesteryl-TEG)2-SpacerC18-Fluos-Biotin-TEG-5′ INVERS
(§2) Centrifugation characteristics: 20 min, 500×g.

WBC [1] = assay: WBC recovery rate after centrifugation (stabilization of cells, Example 5); assay type: cell-based; conditions: centrifugation 20 min
Procedure: (§3) Centrifugation characteristics: 10 min, 300×g.
as §3
The respective left, middle and right columns per assay represent different Experimenters 1, 2 and 3. […] Centrifugation characteristics: 10 min, 300×g. Molecule: Cholesteryl-TEG-Cholesteryl-TEG-(SpacerC18)7-Fluos-Biotin-TEG.
(§4) Following molecules were tested: 1234: 5′-(Cholesteryl-TEG)2-Spacer C18-dT-Biotin-TEG-3′; 1248: 3′-(Cholesteryl-TEG)2-PEG2000-Fluos-Biotin-TEG-5′ INVERS; 1254: 3′-(Cholesteryl-TEG)2-SpacerC18-Fluos-Biotin-TEG-5′ INVERS; 1255: 3′-(Myristic acid)2-PEG2000-dT-Biotin-TEG-5′ INVERS. […] Centrifugation characteristics: 20 min, 300×g. Respective left column: 10 min incubation with molecule. Respective middle column: 1 h min incubation with molecule. Respective right column: 2 h incubation with molecule.
Following molecules were tested: 1255: 3′-(Myristic acid)2-PEG2000-dT-Biotin-TEG-5′ INVERS; 1234: 5′-(Cholesteryl-TEG)2-Spacer C18-dT-Biotin-TEG-3′; 1248: 3′-(Cholesteryl-TEG)2-PEG2000-Fluos-Biotin-TEG-5′ INVERS; 1254: 3′-(Cholesteryl-TEG)2-SpacerC18-Fluos-Biotin-TEG-5′ INVERS. […] Centrifugation characteristics: 20 min, 500×g. Respective left column: 10 min incubation with molecule. Respective middle column: 1 h min incubation with molecule. Respective right column: 3 h incubation with molecule.
as §4, with “tested: 1255: 3′-(Myristic acid)2-PEG2000-dT-Biotin-TEG-5′ INVERS;” for “tested:”, “3′-(Cholesteryl-TEG)2-SpacerC18-Fluos-Biotin-TEG-5′” for “3′-(Cholesteryl-TEG)2-SpacerC18-Fluos-Biotin-TEG-5′ INVERS; 1255: 3′-(Myristic acid)2-PEG2000-dT-Biotin-TEG-5′”, “1000×g.” for “300×g.”
The effect of compounds of the invention on stabilizing cells and on immobilization was determined.
Centrifugation characteristics: 10 min, 300×g. A: Choleseryl-TEG-Cholesteryl-TEG-(SpacerC18)7-Fluos-Biotin-TEG.
Centrifugation characteristics: 10 min, 300×g. Molecule: Cholesteryl-TEG-Cholesteryl-TEG-(SpacerC18)7-Fluos-Biotin-TEG.
Centrifugation characteristics: 20 min, 300×g.
as §1

MDA-MB468 cells = conditions: centrifugation 20 min, 500×g; within 5 h incubation with molecule
Procedure: Respective columns from left: 1: 10 min incubation with molecule. 2: 1 h incubation with molecule. 3: 3 h incubation with molecule. 4: 5 h min incubation with molecule. Following compounds for use according to the invention were tested: 1234: 5′-(Cholesteryl-TEG)2-Spacer C18-dT-Biotin-TEG-3′; 1255: 3′-(Myristic acid)2-PEG2000-dT-Biotin-TEG-5′ INVERS. […] Centrifugation characteristics: 20 min, 500×g.
Following compounds of the invention were tested: • 1234: 5′-(Cholesteryl-TEG)2-Spacer C18-dT-Biotin-TEG-3′ • 1255: 3′-(Myristic acid)2-PEG2000-dT-Biotin-TEG-5′ INVERS
as §2

white blood cells (WBCs) = conditions: for WBC per well: 300 000 WBCs/well
Procedure: Aim of this experiment: Testing of the white blood cell immobilization on a streptavidin-coated surface using different molecules of the invention. In particular, the performance of a single cholesterol-molecule and different dual-linker molecules (i.e. containing two hydrophobic moieties) was tested. In detail, immobilization of white blood cells (WBCs) on a Streptavidin-coated surface using different linker molecules was tested on a 12-well plate: 300 000 WBCs/well. This was followed by the measurement of the cell recovery rate after immobilization and washing of the cells using the Cellavista instrument (10× Nuclei Operator s9s5).

COS 7 = assay: Labelling of cells using compounds of the invention; assay type: cell-based
Description: (§5) 2. Labelling of Cells Using Compounds of the Invention

CHO = assay: as above; assay type: cell-based
Description: as §5

U937 = assay: as above; assay type: cell-based
Description: as §5

Hela = assay: as above; assay type: cell-based; conditions: * one cell stained weakly
Description: as §5

Jurkats = assay: as above; assay type: cell-based
Description: as §5

MDA-MB468 = assay: as above; assay type: cell-based
Description: as §5

Epithelial cells = assay: as above; assay type: cell-based
Description: as §5

NIH 3T3 = assay: as above; assay type: cell-based; conditions: * one cell not stained
Description: as §5

WBC [2] = assay: Immobilization of cells, recovery rate of cells (Example 3 A and D); assay type: cell-based; conditions: WBCs
Procedure: In the following experiment, the recovery rate of cells was determined.

WBCs = assay: Labelling of cells using compounds of the invention; assay type: cell-based
Description: as §5

[3] = Sample 2, compound concentration: 100 pmol/10e6 WBCs
[4] = Sample 2, compound concentration: 1 nmol/10e6 WBCs

Row | Compound | Stability of Jurkat culture cells during centrifugation (Jurkat cells) | Labelling (staining) of COS 7 (COS 7) | Labelling (staining) of CHO (CHO) | Labelling (staining) of U937 (U937) | Labelling (staining) of Hela (Hela) | Labelling (staining) of Jurkats (Jurkats) | Labelling (staining) of MDA-MB468 (MDA-MB468) | Labelling (staining) of Epithelial cells (Epithelial cells) | Labelling (staining) of NIH 3T3 (NIH 3T3) | also measured
1 | 3′-(Myristic acid)2-PEG2000-dT-Biotin-TEG-5′ INVERS [compound 1255] | stable during centrifugation processes | – | – | – | – | – | – | – | – | Performance in WBC recovery rate after centrifugation (ranking) (WBC [1]; 300×g): followed by compound 1255; Performance in WBC recovery rate after centrifugation (ranking) (WBC [1]; 500×g): followed by molecule 1255; Stability of MDA-MB468 culture cells during centrifugation (MDA-MB468 cells): stable during centrifugation processes
2 | 5′-(Cholesteryl-TEG)2-Spacer C18-Fluos-Biotin_TEG-3′ INVERS [29.891254] | stable during centrifugation processes | – | – | – | – | – | – | – | – | WBC per well (white blood cells (WBCs); Sample 1, first block of the table (r4-r12), footnote: 1 nmol/10e6 WBCs): 157660 and 190148 and 170850; WBC per well (white blood cells (WBCs); Sample 1, second block of the table (r13-r21), compound concentration: 1 nmol/10e6 WBCs): 244649 and 234262 and 260760; Mean (WBC per well) (white blood cells (WBCs); [3]): 197067.00; WBC per well (white blood cells (WBCs); [3]): 200184 and 205917 and 185100; Mean (WBC per well) (white blood cells (WBCs); [4]): 245376.00; WBC per well (white blood cells (WBCs); [4]): 244396 and 244304 and 247428
3 | 5′-(Cholesteryl-TEG)2-Spacer C18-dT-Biotin-TEG-3′ [compound 1234] | stable during centrifugation processes | – | – | – | – | – | – | – | – | Stability of MDA-MB468 culture cells during centrifugation (MDA-MB468 cells): stable during centrifugation processes
4 | 5′-CholesterylTEG-CholesterylTEG-PEG2000-Fluos-3′ [BMO 29.891133] | – | √ | √ | √ | √ | √ | √ | √ | √ | –
5 | 5′-CholesterylTEG-CholesterylTEG-PEG2000-Fluos-BiotinTEG-3′ [BMO 29.891180] | – | – | – | – | – | – | – | – | – | staining (Remarks) (WBC [2]): strong
6 | CCCCCCCCCCCCCCCCCCN1C(=CC=CC2=[N+](CCCCCCCCCCCCCCCCCC)c3ccccc3C2(C)C)C(C)(C)c2ccccc21.[O-][Cl+3]([O-])([O-])[O-] [1,1′-Dioctadecyl-3,3,3′,3′-tetramethylindocarbocyanin perchlorate] | – | √ | √ | √ | √ | √ | √ | √ | √* | Labelling (staining) of WBCs (WBCs): √ not all
7 | CCCCC/C=C\C/C=C\CCCCCCCCN1C(=CC=CC2=[N+](CCCCCCCC/C=C\C/C=C\CCCCC)c3ccccc3C2(C)C)C(C)(C)c2ccccc21.[O-][Cl+3]([O-])([O-])[O-] [Linol, 1,1′-dilinoleyl-3,3,3′,3′-tetramethylindocarbocyanine perchlorate] | – | √ | √ | √ | √ | √ | √ | √ | √ | –
8 | CCCCCCCCCCCCCCCCCCCCCC[N+]1=C(/C=C/C=C2/N(CCCCCCCCCCCCCC)c3ccccc3C2(C)C)C(C)(C)c2ccccc21.[I-] [PKH26] | – | √ | √ | √ | √* | √ | √ | √ not all | √ | –

From patent US10718769B2, “Compounds comprising one or more hydrophobic domains and a hydrophilic domain comprising peg moieties, useful for binding cells” (Roche Diagnostics Operations, Inc., priority 2013, dated 2020)
